Consider eight compounds from US20240226130A1, “4'-THIONUCLEOSIDE ANALOGUES AND THEIR PHARMACEUTICAL USE” (Gilead Sciences, Inc., priority 2022, published 2024).

The test system of series [1] is HIV-1 (IIIB). The experiment in a line: Antiviral (HIV) assay in MT-4 cells. In kind it is cell-based. As to conditions: read-out: MT4 HIV EC50. The method, then:
Example 9: Antiviral (HIV) Assay in MT-4 Cells
Compounds were tested in a high-throughput 384-well assay format for their ability to inhibit the replication of HIV-1 (IIIB) in MT-4 cells. Compounds were serially diluted (1:3) in DMSO on 384-well polypropylene plates and further diluted 200-fold into complete RPMI media (10% FBS, 1% P/S) using the Biotek Micro Flow and Labcyte ECHO acoustic dispenser. Each plate contained up to 8 test compounds, with negative (no drug) and positive (5 μM AZT) controls. MT-4 cells were pre-treated with 10 μL of either RPMI (mock-infected) or a fresh 1:250 dilution of HIV-1 IIIB concentrated virus stock. Infected and uninfected MT-4 cells were further diluted in complete RPMI media and added to each plate using a Micro Flow dispenser. After 5 days incubation in a humidified and temperature-controlled incubator (37° C.), Cell Titer Glo (Promega) was added to the assay plates and chemiluminescence read using an Envision plate-reader. EC50 values were defined as the compound concentration that causes a 50% decrease in luminescence signal and were calculated using a sigmoidal dose-response model to generate curve fits and are shown in Table 1.

Series [2] in a line: Cytotoxicity assay in MT-4 cells. It counts as cell-based. As to conditions: human, uninfected MT-4 cells, read-out: MT4 CC50. The method, then: Example 10: Cytotoxicity Assay in MT-4 Cells
Assays were performed as described in Example 9 except uninfected MT-4 cells were added to each well containing test compound. In addition, 10 μM puromycin was added to the last column of each assay plate to assess a base level of cytotoxicity.

Series [3] is described as follows: Rhesus pharmacokinetic study, intravenous compound 7 (plasma and PBMC). As to conditions: for Intracellular concentration in PBMC: LOQ 2.5 μM compound 7, 0.63 μM triphosphate. The method, then: Male Indian Origin Rhesus Monkeys were used for the pharmacokinetic studies. Studies were conducted under a protocol approved by IACUC. […] The intravenous dose was administered as an approximately 30-minute infusion, and after dose administration the dose apparatus was flushed with approximately 1 mL saline before removal from the animal. Food was returned 4 hours after dosing. […] The K2EDTA tubes were kept chilled at approximately 5° C. until centrifugation (4° C., 5 minutes, 2000×g) to collect plasma. Centrifugation began within 1 hour of collection. Plasma samples were harvested, placed in micronic tubes, and maintained on dry ice prior to storage at −70° C. until analysis by LC-MS/MS. […] The sodium citrate tubes were then gently inverted 3-4 times and stored upright at ambient temperature until centrifugation to collect PBMCs. Centrifugation began as soon as possible following collection, within 6 hours after collection. The PBMCs were separated by centrifugation (30 minutes at 1500×g-1800×g, 18-20° C.), washed once with ice cold 0.9% NaCl and treated with red blood cell lysis buffer (3.5 g ammonium chloride and 0.036 g ammonium carbonate in 500 mL ultrapure water, prepared before first blood collection) for 10 minutes at ambient temperature. Subsequently the cells were washed twice with ice cold 0.9% NaCl, the cell pellet resuspended in ice cold RIPA buffer (fortified with Pierce protease ad phosphatase inhibitor tablet), snap frozen in liquid nitrogen, and maintained at −70° C. until analysis by LC-MS/MS.

Series [4] can be described thus: Rhesus pharmacokinetic study, oral compound 7 (plasma and PBMC). As to conditions: for Intracellular concentration in PBMC: LOQ 0.16 μM compound 7, 0.04 μM triphosphate. As to the method: The oral dose was administered via oral gavage, and after dose administration the dose apparatus was flushed with approximately 10 mL water before removal from the animal. Food was returned 4 hours after dosing. […] The K2EDTA tubes were kept chilled at approximately 5° C. until centrifugation (4° C., 5 minutes, 2000×g) to collect plasma. Centrifugation began within 1 hour of collection. Plasma samples were harvested, placed in micronic tubes, and maintained on dry ice prior to storage at −70° C. until analysis by LC-MS/MS. […] The sodium citrate tubes were then gently inverted 3-4 times and stored upright at ambient temperature until centrifugation to collect PBMCs. Centrifugation began as soon as possible following collection, within 6 hours after collection. The PBMCs were separated by centrifugation (30 minutes at 1500×g-1800×g, 18-20° C.), washed once with ice cold 0.9% NaCl and treated with red blood cell lysis buffer (3.5 g ammonium chloride and 0.036 g ammonium carbonate in 500 mL ultrapure water, prepared before first blood collection) for 10 minutes at ambient temperature. Subsequently, the cells were washed twice with ice cold 0.9% NaCl and the cell pellet maintained at −70° C. until analysis by LC-MS/MS.

The mark [5] stands for this setting: Human immunodeficiency virus 1, MT4, 120 h, HIV-1 IIIB in MT-4 cells, 5 days, Cell Titer Glo.
The mark [6] stands for this setting: male, Indian Origin, rhesus monkey, plasma, iv, 1 mg/kg.
Where [7] appears, read: male, Indian Origin, rhesus monkey, peripheral blood mononuclear cells (PBMC), po, 7.5 mg/kg.
Where [8] appears, read: male, Indian Origin, rhesus monkey, plasma, po, 7.5 mg/kg.
[9] abbreviates: Human immunodeficiency virus 1, IIIB, MT4, 120 h.

Like-named read-outs stand apart in the source and are kept apart here.

Take `C#C[C@]1(CO)S[C@@H](n2cc(F)c(N)nc2=O)C[C@@H]1O` [Compound 7, 4-Amino-1-((2R,4S,5R)-5-ethynyl-4-hydroxy-5-(hydroxymethyl)tetrahydrothiophen-2-yl)-5-fluoropyrimidin-2(1H)-one]: the EC50 (as a rule, the concentration that produces a half-maximal response) in series [1] (setting [5]) turned out to be 0.018 µM. The CC50 (as a rule, the concentration at which the toxic effect on the cells reaches its halfway point) at 5 days in series [2] came out at 24 µM. Moreover, the “Intracellular concentration in PBMC” value in series [3] (12 hr after intravenous 1 mg/kg compound 7), in series [3] (24 hr after intravenous 1 mg/kg compound 7), in series [3] (48 hr after intravenous 1 mg/kg compound 7), in series [3] (72 hr after intravenous 1 mg/kg compound 7), in series [3] (144 hr after intravenous 1 mg/kg compound 7) and in series [3] (168 hr after intravenous 1 mg/kg compound 7) was “BLQ” in each case. In addition, the “Intracellular concentration in PBMC” value in series [4] (48 hr after oral 7.5 mg/kg compound 7), in series [4] (72 hr after oral 7.5 mg/kg compound 7), in series [4] (120 hr after oral 7.5 mg/kg compound 7) and in series [4] (168 hr after oral 7.5 mg/kg compound 7) was “BLQ” in each case. The half-life (commonly how long it takes for the measured level to halve) in series [3] (male, Indian Origin, rhesus monkey, in vivo, iv, 1 mg/kg) was 50 ± 26.4 h; in series [4] (male, Indian Origin, rhesus monkey, in vivo, po, 7.5 mg/kg), 25.1 ± 16.3 h. Moreover, the AUC(0-t) – broadly, exposure summed from dosing to a finite time, without extrapolation to infinity – in series [3] (setting [6]) stood at 14.6 ± 3.01 µM·h; in series [4] (setting [8]), 20.1 ± 14.9 µM·h. Moreover, the results for the Cmax in series [3] (setting [6]) and in series [4] (setting [8]) were 3770 ± 310 nM and 1500 ± 350 nM, respectively. This compound also showed a concentration at 12 h in series [4] (setting [7]) of 560 ± 30 nM. In series [4] (setting [7]), this compound displayed a concentration at 24 h of 370 ± 200 nM.
With `C#C[C@]1(CO)S[C@@H](n2cnc3c(OCC)nc(N)nc32)C[C@@H]1O` [Compound 4, (2R,3S,5R)-5-(2-Amino-6-ethoxy-9H-purin-9-yl)-2-ethynyl-2-(hydroxymethyl)tetrahydrothiophen-3-ol], the EC50 in series [1] (setting [5]) is 0.477 µM. In addition, the CC50 at 5 days in series [2] is 23 µM.
On to `C#C[C@]1(CO)S[C@@H](n2cnc3c(N)nc(N)nc32)C[C@@H]1O` [Compound 1, (2R,3S,5R)-5-(2,6-Diamino-9H-purin-9-yl)-2-ethynyl-2-(hydroxymethyl)tetrahydrothiophen-3-ol], for which the EC50 in series [1] (setting [5]) is 0.683 µM. In addition, in series [2], the CC50 at 5 days was > 25 µM.
Regarding `C#C[C@]1(CO)S[C@@H](n2cnc3nc(N)nc(OCC)c32)C[C@@H]1O` [Compound 5, (2R,3S,5R)-5-(2-Amino-6-ethoxy-7H-purin-7-yl)-2-ethynyl-2-(hydroxymethyl)tetrahydrothiophen-3-ol], the EC50 in series [1] (setting [5]) was > 5 µM. In addition, in series [2], the CC50 at 5 days is > 25 µM.
For `C#C[C@]1(CO[P@@](=O)(N[C@@H](C)C(=O)OCC(CC)CC)Oc2ccccc2)S[C@@H](n2cnc3c(N)nc(N)nc32)C[C@@H]1O` [Compound 6, 2-Ethylbutyl ((S)-(((2R,3S,5R)-5-(2,6-diamino-9H-purin-9-yl)-2-ethynyl-3-hydroxytetrahydrothiophen-2-yl)methoxy)(phenoxy)phosphoryl)-L-alaninate], in series [1] (setting [9]), the EC50 is 0.026 µM. Besides, the CC50 at 5 days in series [2] is > 25 µM.
Take `C#C[C@]1(CO)S[C@@H](n2cnc3nc(N)nc(NC4CC4)c32)C[C@@H]1O` [Compound 3, (2R,3S,5R)-5-(2-Amino-6-(cyclopropylamino)-7H-purin-7-yl)-2-ethynyl-2-(hydroxymethyl)tetrahydrothiophen-3-ol]: the EC50 in series [1] (setting [5]) is > 25 µM. For the same compound, the half-maximal cytotoxic concentration (CC50) at 5 days in series [2] was > 25 µM.
In the case of `C#C[C@]1(CO)S[C@@H](n2cnc3c(NC4CC4)nc(N)nc32)C[C@@H]1O` [Compound 2, (2R,3S,5R)-5-(2-Amino-6-(cyclopropylamino)-9H-purin-9-yl)-2-ethynyl-2-(hydroxymethyl)tetrahydrothiophen-3-ol], the EC50 in series [1] (setting [5]) came out at 4.52 µM. Further, in series [2], the 50% cytotoxic concentration (CC50) at 5 days is > 25 µM.
As for `C#C[C@]1(CO[P@@](=O)(N[C@@H](C)C(=O)OCC(CC)CC)Oc2ccccc2)S[C@@H](n2cc(F)c(N)nc2=O)C[C@@H]1O` [Compound 9, 2-Ethylbutyl ((S)-(((2R,3S,5R)-5-(4-amino-5-fluoro-2-oxopyrimidin-1(2H)-yl)-2-ethynyl-3-hydroxytetrahydrothiophen-2-yl)methoxy)(phenoxy)phosphoryl)-L-alaninate], in series [1] (setting [9]), the EC50 came out at 0.145 µM. Further, in series [2], the CC50 at 5 days stood at 23.2 µM.
